This note sets out measurements from patent US20150150769A1, “COSMETIC COMPOSITIONS COMPRISING DITERPENOIC ACIDS, E.G. GIBBERELLIC ACIDS” (Cutech S.r.L., priority 2011, published 2015).

Assay [1] deals with Human anagen hair follicles. As to the kind of experiment: Growth (elongation) of cultured isolated human hair follicles. The class given is cell-based. As for the experimental part: (§1) Human anagen hair follicles were isolated from scalp skin taken from a single donor and transferred for cultivation in sterile 24 well plates using a modified Williams' Medium E. Cultivation took place for nine days, while the experimental treatment of the follicles started 24 hours from the beginning of the cultivation. Hair follicles were selected for the experiments after 18 h of cultivation. Only follicles showing a good vital stage and a growth of not less than 0.2 mm were considered suitable to be maintained in culture. All experimental groups and the control group were prepared by including 12 follicles, plated in 24 well plates at a density of 3 hair follicles (HFs) per well. […] The growth of the hair follicles was studied by performing image analyses on microphotographs. All hair follicles were photographed at day 5 of culture (day 4 of treatment) and then at day 9 of culture (day 8 of treatment).

In assay [2] the test system is Human anagen hair follicles. The assay is described as follows: Histological analysis of hair follicles (anagen/catagen stage, dermopapilla morphology). The assay is classed as cell-based. The settings on record: for Anagen phase / Catagen phase: after 9 days of cultivation. How it is done: as §1
The experiment according to Examples 1 to 3 was terminated after 9 days of cultivation. Subsequently, the hair follicles were subjected to histological analysis by staining with haematossilin and eosin in order to verify the morphological state of the dermopapilla.

In the case of `C=C1C[C@]23C[C@@]1(O)CC[C@H]2[C@@]12C=C[C@H](O)[C@@](C)(C(=O)O1)[C@H]2[C@@H]3C(=O)O` [Gibberellin, Gibberellic acid], in assay [1] (Homo sapiens, Examples 1-3, 1 μg/ml, P<0.01, read-out: inhibitory action on hair growth in comparison with the untreated sample), the inhibition at 1 µg/mL came out at 19%. The “Growth of hair follicles: Elongation performance, Average” value in assay [1] (Table 1, Examples 1-3, 0.01 μg/ml, day 9 of culture) is 88.2 ± 7.0 percentage of the control group; in assay [1] (Table 1, Examples 1-3, 0.1 μg/ml, day 9 of culture), 85.6 ± 5.4 percentage of the control group; in assay [1] (Table 1, Examples 1-3, 1.0 μg/ml, day 9 of culture), 80.6 ± 5.4 percentage of the control group; in assay [1] (Table 2, Examples 4-6, 0.01 μg/ml, 9 days of cultivation), 81.4 ± 5.9 percentage of the control group; in assay [1] (Table 2, Examples 4-6, 0.1 μg/ml, 9 days of cultivation), 89.8 ± 8.0 percentage of the control group; in assay [1] (Table 2, Examples 4-6, 1.0 μg/ml, 9 days of cultivation) it was 82.7 ± 6.6 percentage of the control group. The “Growth of hair follicles: Elongation performance, Average” value was 76.6 ± 4.3 percentage of the control group in assay [1] (Table 3, Examples 7-8, 0.1 μg/ml, 9 days of cultivation); 69.9 ± 3.2 percentage of the control group in assay [1] (Table 3, Examples 7-8, 1.0 μg/ml, 9 days of cultivation); 77.7 ± 5.8 percentage of the control group in assay [1] (Table 4, Examples 9-10, 0.1 μg/ml, 9 days of cultivation); 72.3 ± 4.9 percentage of the control group in assay [1] (Table 4, Examples 9-10, 1.0 μg/ml, 9 days of cultivation); 91.3 ± 4.7 percentage of the control group in assay [1] (Table 5, Examples 11-12, 0.1 μg/ml, 9 days of cultivation); 79.9 ± 5.9 percentage of the control group in assay [1] (Table 5, Examples 11-12, 1.0 μg/ml, 9 days of cultivation). Besides, the “effect on decline of the hair follicles into the catagen phase” value in assay [2] (Examples 13-14, 0.1 and 1 μg/ml, result in words) is “significantly anticipated the decline into the catagen phase”. In addition, the Anagen phase in assay [2] (Table 6, Example 13, 0.1 μg/ml) was 22.2; in assay [2] (Table 6, Example 14, 1 μg/ml), 9.1. Moreover, the Catagen phase is on record as 77.8 in assay [2] (Table 6, Example 13, 0.1 μg/ml) and 90.9 in assay [2] (Table 6, Example 14, 1 μg/ml).
With Gibberellic acid [Gibberellin], the “change of hair follicle growth in comparison to the control group” value is −30.1% in assay [1] (Examples 7-8, 1 μg/ml, P<0.001); −27.7% in assay [1] (Examples 9-10, 1 μg/ml, P<0.001); −20% in assay [1] (Examples 11-12, 1 μg/ml, P<0.01). Besides, in assay [1] (Examples 11-12, depending on the treatment dosage (0.1-1.0 μg/ml)), the “reduction of hair growth in comparison to the control group” value was “up to 20%”.
